Data: ChEMBL document CHEMBL1177734, “Novel tacrine-8-hydroxyquinoline hybrids as multifunctional agents for the treatment of Alzheimer's disease, with neuroprotective, cholinergic, antioxidant, and copper-complexing properties” (J Med Chem, 2010)
The source made the active and inactive calls. The calls are words filed in the database; no cut-off is given here.

Tests used:
Cholinesterase [1] = target: Cholinesterase (Equus caballus, UniProt P81908)
Description: Inhibition of horse serum BChE by Ellman's reaction

Acetylcholinesterase [2] = target: T1, Acetylcholinesterase (Bos taurus, UniProt P23795)
T1 sequence (P23795 whole entry): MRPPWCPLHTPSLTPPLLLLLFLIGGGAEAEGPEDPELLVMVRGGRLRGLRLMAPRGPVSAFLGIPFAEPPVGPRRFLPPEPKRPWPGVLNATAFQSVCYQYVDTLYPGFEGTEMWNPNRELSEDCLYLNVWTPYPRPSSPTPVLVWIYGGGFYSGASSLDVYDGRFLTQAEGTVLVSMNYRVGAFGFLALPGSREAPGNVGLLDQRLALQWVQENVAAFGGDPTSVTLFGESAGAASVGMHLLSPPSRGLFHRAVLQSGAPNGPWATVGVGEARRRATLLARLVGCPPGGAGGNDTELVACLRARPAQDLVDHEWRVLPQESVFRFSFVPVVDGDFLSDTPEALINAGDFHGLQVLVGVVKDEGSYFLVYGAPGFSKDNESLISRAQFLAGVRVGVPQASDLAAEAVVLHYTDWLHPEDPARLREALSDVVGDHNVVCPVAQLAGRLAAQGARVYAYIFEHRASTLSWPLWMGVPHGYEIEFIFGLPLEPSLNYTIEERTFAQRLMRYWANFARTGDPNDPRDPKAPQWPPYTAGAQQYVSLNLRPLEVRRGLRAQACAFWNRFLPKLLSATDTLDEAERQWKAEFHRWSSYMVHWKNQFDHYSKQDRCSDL
Description: Inhibition of bovine erythrocyte AChE by Ellman's reaction

[3] = Permeability by PAMPA method; type: ADME; conditions: read-out: permeability
Cholinesterase [4] = target: Cholinesterase (Homo sapiens, UniProt P06276)
Description: Inhibition of human serum BChE by Ellman's reaction

Acetylcholinesterase [5] = target: Acetylcholinesterase (Homo sapiens, UniProt P22303)
Description: Inhibition of human erythrocyte AChE by Ellman's reaction

SH-SY5Y [6] = assay: Neuroprotective activity against rotenone-induced cell death in human SH-SY5Y cells assessed as lactate dehydrogenase release at 3 uM after 24 hrs; type: functional
[7] = Metal chelating activity assessed as formation of copper complex in Tris buffer at pH 7.4 at 22.5 uM after 1 min by UV-vis spectrometry; type: functional
[8] = Metal chelating activity assessed as formation of copper complex in Tris buffer at pH 7.4 at 22.5 uM by UV-vis spectrometry; type: functional
SH-SY5Y [9] = assay: Cytotoxicity against human SH-SY5Y cells assessed as lactate dehydrogenase release at 3 uM after 24 hrs; type: cell-based
[10] = Metal chelating activity assessed as formation of iron complex in Tris buffer at pH 7.4 at 22.5 uM after 30 mins by UV-vis spectrometry; type: functional

Chain of Acetylcholinesterase (Homo sapiens, UniProt P22303) (P22303 whole entry): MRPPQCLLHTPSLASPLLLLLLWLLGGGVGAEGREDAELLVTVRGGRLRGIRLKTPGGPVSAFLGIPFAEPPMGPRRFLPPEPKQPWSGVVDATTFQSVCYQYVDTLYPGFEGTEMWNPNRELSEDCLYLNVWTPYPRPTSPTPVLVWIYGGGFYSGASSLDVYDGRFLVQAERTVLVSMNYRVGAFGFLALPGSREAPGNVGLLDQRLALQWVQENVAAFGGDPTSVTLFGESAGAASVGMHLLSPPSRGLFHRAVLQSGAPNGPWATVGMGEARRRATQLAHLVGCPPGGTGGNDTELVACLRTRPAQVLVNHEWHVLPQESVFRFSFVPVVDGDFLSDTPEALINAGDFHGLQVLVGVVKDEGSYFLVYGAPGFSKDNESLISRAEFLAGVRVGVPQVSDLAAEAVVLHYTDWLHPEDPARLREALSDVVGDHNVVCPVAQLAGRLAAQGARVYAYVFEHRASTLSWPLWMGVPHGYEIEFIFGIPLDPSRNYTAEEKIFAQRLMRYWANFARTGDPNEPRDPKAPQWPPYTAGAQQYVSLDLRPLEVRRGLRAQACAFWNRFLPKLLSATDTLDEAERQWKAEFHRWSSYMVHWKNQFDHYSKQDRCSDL
Chain of Cholinesterase (Equus caballus, UniProt P81908) (P81908 whole entry): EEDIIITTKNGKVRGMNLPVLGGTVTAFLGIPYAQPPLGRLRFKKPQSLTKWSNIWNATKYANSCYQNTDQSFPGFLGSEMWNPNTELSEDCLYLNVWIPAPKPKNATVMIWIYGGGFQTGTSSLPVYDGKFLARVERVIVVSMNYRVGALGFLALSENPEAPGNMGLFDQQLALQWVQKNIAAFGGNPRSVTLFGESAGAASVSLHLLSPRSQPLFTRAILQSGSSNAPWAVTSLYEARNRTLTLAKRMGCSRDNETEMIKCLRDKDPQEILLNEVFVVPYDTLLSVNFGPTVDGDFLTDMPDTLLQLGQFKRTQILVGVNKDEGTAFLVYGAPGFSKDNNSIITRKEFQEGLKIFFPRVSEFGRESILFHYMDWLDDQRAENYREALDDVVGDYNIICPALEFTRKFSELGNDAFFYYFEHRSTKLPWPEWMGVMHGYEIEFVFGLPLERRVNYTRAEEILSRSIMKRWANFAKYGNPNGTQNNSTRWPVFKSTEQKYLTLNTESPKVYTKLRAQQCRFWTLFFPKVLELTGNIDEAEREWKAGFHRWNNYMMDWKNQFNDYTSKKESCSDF
Chain of Cholinesterase (Homo sapiens, UniProt P06276) (P06276 whole entry): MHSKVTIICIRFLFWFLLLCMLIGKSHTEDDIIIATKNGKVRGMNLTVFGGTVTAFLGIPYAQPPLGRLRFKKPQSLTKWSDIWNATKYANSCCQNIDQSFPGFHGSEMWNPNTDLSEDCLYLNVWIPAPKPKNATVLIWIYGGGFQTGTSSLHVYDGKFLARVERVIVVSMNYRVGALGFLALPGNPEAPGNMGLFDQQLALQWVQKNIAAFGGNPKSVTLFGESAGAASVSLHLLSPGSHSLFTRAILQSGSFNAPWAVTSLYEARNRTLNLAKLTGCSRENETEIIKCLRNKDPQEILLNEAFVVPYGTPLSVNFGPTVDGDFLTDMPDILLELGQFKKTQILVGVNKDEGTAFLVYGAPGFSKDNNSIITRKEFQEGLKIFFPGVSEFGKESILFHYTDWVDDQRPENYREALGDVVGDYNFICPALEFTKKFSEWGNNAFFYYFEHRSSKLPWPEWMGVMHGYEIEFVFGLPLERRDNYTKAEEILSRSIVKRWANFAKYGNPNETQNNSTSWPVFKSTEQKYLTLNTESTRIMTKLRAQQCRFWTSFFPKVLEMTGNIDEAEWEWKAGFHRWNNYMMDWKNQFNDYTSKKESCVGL

SMILES	IC50 (Cholinesterase [1])	IC50 (Acetylcholinesterase [2])	further results
Oc1c(CNCCCCCCCCCCNc2c3c(nc4ccccc24)CCCC3)ccc2cccnc12	0.065 µM	0.05 µM	
Cc1ccc2ccc(CNCCCN(C)CCCNc3c4c(nc5ccccc35)CCCC4)c(O)c2n1		0.2 µM	
Cl.Cl.Cl.Oc1c(CNCCCCCCCCCNc2c3c(nc4ccccc24)CCCC3)cc(Cl)c2cccnc12	0.0065 µM	0.085 µM	Papp [3]: 100 nm/s; IC50 (Cholinesterase [4]): 0.055 µM; IC50 (Acetylcholinesterase [5]): 0.001 µM
Cc1ccc2ccc(CNCCCCCCCCCNc3c4c(nc5ccccc35)CCCC4)c(O)c2n1		0.1 µM	
Oc1c(CNCCCCCCNc2c3c(nc4ccccc24)CCCC3)ccc2cccnc12		0.2 µM	
Oc1cccc2cccnc12 [OXYQUINOLINE]			IC50 (Cholinesterase [4]): > 0.1 µM; IC50 (Acetylcholinesterase [5]): > 0.1 µM
Cl.Cl.Oc1c(CNCCCCCCCCCNc2c3c(nc4ccccc24)CCCC3)ccc2cccnc12	0.005 µM	0.02 µM	Activity (SH-SY5Y [6]): 30%; Activity [7]: inactive; Activity [8]: Active; Papp [3]: 174 nm/s; Activity (SH-SY5Y [9]): Toxic; Activity [10]: inactive; IC50 (Cholinesterase [4]): 0.02 µM; IC50 (Acetylcholinesterase [5]): 0.0055 µM
Oc1c(CNCCCCCCCNc2c3c(nc4ccccc24)CCCC3)ccc2cccnc12	0.15 µM	0.025 µM	
Oc1c(CNCCCCCCCCCCCCNc2c3c(nc4ccccc24)CCCC3)ccc2cccnc12		0.25 µM	
Oc1c(CNCCCCCCCCCCNc2c3c(nc4ccccc24)CCCC3)cc(Cl)c2cccnc12		0.1 µM	
Cc1ccc2ccc(CNCCCCCCCNc3c4c(nc5ccccc35)CCCC4)c(O)c2n1		0.2 µM	
Cc1ccc2ccc(CNCCCCCCCCNc3c4c(nc5ccccc35)CCCC4)c(O)c2n1.Cl.Cl	0.002 µM	0.075 µM	Papp [3]: 141 nm/s; IC50 (Cholinesterase [4]): 0.0065 µM; IC50 (Acetylcholinesterase [5]): 0.0005 µM
Oc1c(CNCCCCCCCCNc2c3c(nc4ccccc24)CCCC3)ccc2cccnc12	0.03 µM	0.09 µM	
CN(CCCNCc1ccc2cccnc2c1O)CCCNc1c2c(nc3ccccc13)CCCC2	0.05 µM	0.08 µM	
CN(CCCNCc1cc(Cl)c2cccnc2c1O)CCCNc1c2c(nc3ccccc13)CCCC2	0.03 µM	0.09 µM	
Cc1ccc2ccc(CNCCCCCCCCCCNc3c4c(nc5ccccc35)CCCC4)c(O)c2n1	0.007 µM	0.07 µM	
Oc1c(CNCCCCCCCCNc2c3c(nc4ccccc24)CCCC3)cc(Cl)c2cccnc12		0.15 µM	
Oc1c(CNCCCCCCCCCCCCNc2c3c(nc4ccccc24)CCCC3)cc(Cl)c2cccnc12		0.4 µM	
